Assays:
DNBS-induced colitis = assay: DNBS-induced experimental colitis in mice, oral administration; format: in vivo; conditions: day four after DNBS, MWL001 50 mg/kg oral daily
Experimental: In this study, the effect of MWL001 on pro-inflammatory mediators in DNBS-induced experimental colitis in mice was evaluated. In particular it was observed that there was no expression of TNF-α, CD4, TGF-13, CD25 in the colon tissue from sham-treated mice. MWL001 and DEX were administered orally and daily starting at six hours after the DNBS challenge.
Colitis was induced with a very low dose of 2,4-dinitrobenzene sulfonic acid (DNBS) (4 mg per mouse) by using a modification of the method first described in mice. […] Mice were anesthetized by Enflurane. DNBS (4 mg in 100 μl of 50% ethanol) was injected into the rectum through a catheter inserted 4.5 cm proximally to the anus. The carrier alone (100 μl of 50% ethanol) was administered in control experiments. Thereafter, the animals were kept for 15 minutes in a Trendelenburg position to avoid reflux. […] On Day four, the animals were weighed and anaesthetized with chloral hydrate, and their abdomen was opened by a midline incision. The colon was removed, freed from surrounding tissues, opened along the antimesenteric border and processed for histology.
TNF-α and IL-6 levels were evaluated and colon tissues collected at four days after DNBS administration. Briefly, portions of terminal colon were homogenized as previously described in phosphate-buffered saline (PBS, ICN Biomedicals, Milan, Italy) containing two mmol/L of phenyl-methyl sulfonyl fluoride (PMSF, Sigma Chemical Co.). The assay was carried out using a colorimetric, commercial kit (R&D system Milan, Italy) according to the manufacturer instructions. All cytokines determinations were performed in duplicate serial dilutions.
At four days after DNBS administration, colon tissues were fixed in 10% (w/v) PBS-buffered formaldehyde and 7 μm sections were prepared from paraffin embedded tissues. After deparaffinization, endogenous peroxidase was quenched with 0.3% (v/v) hydrogen peroxide in 60% (v/v) methanol for 30 min. The sections were permeabilized with 0.1% (w/v) Triton X-100 in PBS for 20 min. Non-specific adsorption was minimized by incubating the section in 2% (v/v) normal goat serum in PBS for 20 min. Endogenous biotin or avidin binding sites were blocked by sequential incubation for 15 min with biotin and avidin (Vector Laboratories, Burlingame, Calif.), respectively. Sections were incubated overnight with: 1) purified polyclonal antibody directed towards CD4 (Santa Cruz Biotechnology, 1:500 in PBS, v/v) or 2) with purified anti-CD25 (Santa Cruz Biotecnology 1:500 in PBS, w/v) or 3) with anti- TNF-α polyclonal antibody (Santa Cruz Biotechnology, N-19:sc-1350, 1:500 in PBS, v/v) or 4) with anti-TGF-β polyclonal antibody (Santa Cruz, 1:500 in PBS, v/v).
Sections were washed with PBS, and incubated with a secondary antibody. Specific labelling was detected with a biotin-conjugated goat anti-rabbit IgG and avidin-biotin peroxidase complex (Vector Laboratories, Burlingame, Calif.).

[1] = system: oxazolone-induced allergic dermatitis; assay: Murine oxazolone-induced allergic dermatitis; format: in vivo, mice; conditions: hematoxylin and eosin stained sections
Source text: An allergic form of contact dermatitis can be induced in mice by repeated epicutaneous application of the chemical sensitizer oxazolone. This leads to local augmented thickness and weight increase of the skin area where the rechallenge was applied; from the histological point of view, oxazolone-induced dermatitis is characterized by severe mononuclear cell infiltration of the dermis with in situ production of the type 1 proinflammatory cytokines TNF-alpha, IL-1alpha and IFN-gamma. These well-defined mechanistic pathways of inflammatory skin damage make oxazolone-dermatitis a useful in vivo tool for pathogenic studies and a pharmacodynamic parameter to screen drugs of potential utility in counteracting type 1 cytokine dependent cutaneous immunoinflammatory responses such as those found in some forms of bullous disorders, cutaneous vasculitis and psoriasis.
The efficacy of MWL001 in the treatment of Murine oxazolone-induced allergic dermatitis was evaluated. MWL001 and DEX were administered one hour after the second challenge with oxazolone.
The mice were sensitized on day 0 by a single application of 10 ∞l of 2% oxazolone (Sigma Chimica, Milan, Italy) in ethanol to the inner and outer surface of the left ear. The disease was elicited by local rechallenge on day 7 with 15% oxazolone. The right ear was treated with the vehicle of oxazolone (acetone). Eighteen hours after […] the mice are sacrificed under ether anesthesia and both the right and left ears were excised.
Inflammation was assessed as the percentage increase in ear thickness and/or ear weight in the treated left ear vs. the vehicle-treated right ear. Ear thickness was measured with a digital calliper. The extent of the inflammation was quantified as follows: ear swelling (%)=100×(a−b)/b, where a is thickness/weight of the left (treated) ear and b is the thickness/weight of the right (untreated) ear.
Ear tissue samples were fixed with 4% formaldehyde in phosphate-buffered saline (PBS) and embedded in paraffin. Thereafter, 6-μm sections were deparaffinized with xylene, stained with hematoxylin-eosin and observed with a Zeiss microscope (Jena, Germany).

[2] = system: collagen induced arthritis; assay: Collagen induced arthritis (CIA), arthritis score, paw thickness, body weight; format: in vivo, DBA/1J mice; conditions: 50 mg/kg IP; for day from which arthritis score (AS) increases: 3 times a week, 12 administrations; for CIA development: overall conclusion; for arthritis thickness index (ATI) increase: from day 0 to day 70, groups 1M DHA-Tau, 2M DHA, 4M Ibuprofen
Experimental: In a different study, 34 male 8-10 weeks old DBA/1J mice were used. Animals were fed ad libitum a commercial rodent diet (Teklad Certified Global 18% Protein Diet cat #: 106S8216). Animals had free access to acidified drinking water (pH between 2.5 and 3.0) obtained from the municipality supply.
The effect of MWL-002 (conjugate of DHA and taurine) was tested and compared to that of Ibuprofen. Cremophore EL was used as a vehicle.
On day 0, each mouse was anesthetized by inhalation of 3% isofluorane and injected intradermally at the base of the tail with 0.1 ml of emulsion containing 100 μg collagen, using a 1-ml glass syringe with a 26-guade needle. Booster injection was performed at day 15 to the same injection site.
The tested materials were administered 3 times a week, via IP for a total of 12 administrations starting on day 1.
Observations for clinical score were performed twice weekly until study termination.
The severity of arthritis was scored based on the level of inflammation in each of the four paws and recorded as one of five grades according to the following:
Hind paw thickness (edema) was measured by digital caliper once a week until Day 14 and thereafter twice weekly and prior to study termination. Two cross sectional areas were marked, one on the paw and the other at the ankle (tarsal joint). Two measurements were made on each section, perpendicular to each other. The results obtained were calculated as the average areas of both hind limbs per animal.
Body weight was measured prior to dosing, during the study twice a week and prior to study termination.

COX-2 = target: T1, COX-2 (Homo sapiens, UniProt P35354); assay: COX-2 inhibition, enzyme immunoassay (EIA); format: biochemical; conditions: ratio of COX-1 IC50 to COX-2 IC50
T1 sequence (P35354 18-604): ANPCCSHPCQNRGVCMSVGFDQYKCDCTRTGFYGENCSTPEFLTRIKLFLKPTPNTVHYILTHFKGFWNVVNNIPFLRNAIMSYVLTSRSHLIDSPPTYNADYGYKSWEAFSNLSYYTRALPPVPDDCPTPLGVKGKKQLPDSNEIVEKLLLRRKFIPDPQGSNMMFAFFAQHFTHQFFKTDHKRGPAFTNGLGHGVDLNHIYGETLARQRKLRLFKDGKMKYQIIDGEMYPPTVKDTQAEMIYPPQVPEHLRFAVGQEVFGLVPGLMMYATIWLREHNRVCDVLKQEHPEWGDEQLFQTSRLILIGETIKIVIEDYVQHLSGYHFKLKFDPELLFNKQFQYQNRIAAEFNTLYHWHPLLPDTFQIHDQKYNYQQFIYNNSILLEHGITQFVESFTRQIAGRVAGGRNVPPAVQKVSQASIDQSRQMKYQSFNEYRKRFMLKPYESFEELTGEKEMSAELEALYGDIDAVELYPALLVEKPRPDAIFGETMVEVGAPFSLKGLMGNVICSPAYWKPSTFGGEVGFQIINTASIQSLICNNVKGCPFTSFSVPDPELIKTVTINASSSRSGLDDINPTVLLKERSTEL
Experimental: Exemplary conjugates as described herein were tested in vitro for inhibition of COX-1 and COX-2, using an enzyme immunoassay (EIA), as follows.
Cyclooxygenase catalyzes the first step in the biosynthesis of arachidonic acid (AA) to PGH2. PGF2α, produced from PGH2 by reduction with stannous chloride, is measured by enzyme immunoassay (ACETM competitive EIA).
Stock solutions of test compounds were dissolved in a minimum volume of DMSO. Briefly, to a series of supplied reaction buffer solutions (960 μl, 0.1M Tris-HCl pH 8.0 containing 5 mM EDTA and 2 mM phenol) with either COX-1 or COX-2 (10 μl) enzyme in the presence of heme (10 μl) were added 10 μl of various concentrations of test drug solutions (0.01, 0.1, 1, 10, 50, and 100 μM in a final volume of 1 ml). These solutions were incubated for a period of 5 minutes at 37° C. after which 10 μL of AA (100 μM) solution were added and the COX reaction was stopped by the addition of 50 μl of 1M HCl after 2 minutes. PGF2α, produced from PGH2 by reduction with stannous chloride was measured by enzyme immunoassay.
This assay is based on the competition between PGs and a PG-acetylcholinesterase conjugate (PG tracer) for a limited amount of PG antiserum. The amount of PG tracer that is able to bind to the PG antiserum is inversely proportional to the concentration of PGs in the wells since the concentration of PG tracer is held constant while the concentration of PGs varies. The concentration of the test compound causing 50% inhibition (IC50, μM) was calculated from the concentration-inhibition response curve (duplicate determinations).

C[C@@H]1C[C@H]2[C@@H]3CCC4=CC(=O)C=C[C@]4(C)[C@@]3(F)[C@@H](O)C[C@]2(C)[C@@]1(O)C(=O)CO [DEX, dexamathasone, reference compound]
IL-6 colon levels (DNBS-induced colitis; colorimetric kit): significant reduction
TNF-α colon levels (DNBS-induced colitis; colorimetric kit): significant reduction
expression of CD4 in colon tissue (DNBS-induced colitis; immunostaining): significantly reduced
expression of CD25 in colon tissue (DNBS-induced colitis; immunostaining): significantly reduced
expression of TGF-β in colon tissue (DNBS-induced colitis; immunostaining): significantly reduced
expression of TNF-α in colon tissue (DNBS-induced colitis; immunostaining): significantly reduced
histology: ear thickness and inflammatory cells in epidermis and dermis [1]: markedly reduced

CC/C=C\C/C=C\C/C=C\C/C=C\C/C=C\C/C=C\CCC(=O)O [DHA, all-cis-4,7,10,13,16,19-docosahexaenoic acid]
day from which arthritis score (AS) increases [2]: 40 days
CIA development [2]: not substantially effective
arthritis thickness index (ATI) increase [2]: 180%

CC(C)Cc1ccc(C(C)C(=O)O)cc1 (centres unmarked) [Ibuprofen]
day from which arthritis score (AS) increases [2]: 40 days
CIA development [2]: not substantially effective
arthritis thickness index (ATI) increase [2]: 190%

CCCCCCCC/C=C\CCCCCCCC(=O)n1cc(CC(=O)O)c2cc(O)ccc21 [MWL-007, N-oleoyl-5-hydroxy-indol-3-yl-acetic acid]
Ratio (COX ½) (COX-2): 15.83

Reference: patent publication US20130158070A1, “CONJUGATES OF POLYUNSATURATED FATTY ACIDS AND AMINE-CONTAINING COMPOUNDS AND USES THEREOF” (priority 2010, published 2013)
